Results on four molecules are retold here after article PMC3975887, “The structures of cytosolic and plastid-located glutamine synthetases from Medicago truncatula reveal a common and dynamic architecture” (Acta Crystallographica Section D: Biological Crystallography, 2014).

Like-named read-outs stand apart in the source and are kept apart here.

In data set [1] the target is T1, M. truncatula GSII-1a (Medicago truncatula, UniProt O04998).
T1 sequence (O04998 1-356): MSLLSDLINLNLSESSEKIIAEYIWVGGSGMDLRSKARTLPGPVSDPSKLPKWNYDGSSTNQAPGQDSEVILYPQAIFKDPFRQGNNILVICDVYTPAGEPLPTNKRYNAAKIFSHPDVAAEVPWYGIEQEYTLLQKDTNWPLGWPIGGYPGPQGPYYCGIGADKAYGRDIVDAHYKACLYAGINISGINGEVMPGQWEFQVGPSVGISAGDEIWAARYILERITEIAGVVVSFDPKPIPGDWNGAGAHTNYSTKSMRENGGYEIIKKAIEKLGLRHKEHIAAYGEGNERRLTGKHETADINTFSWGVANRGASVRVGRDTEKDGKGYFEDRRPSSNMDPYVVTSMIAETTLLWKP
As to the kind of experiment: GS synthetase reaction inhibition, GSII-1a. The class given is biochemical. The protocol: (§1) The activities of the His-tagged GS isoenzymes (GSII-1a, GSII-1b, GSII-2a and GSII-2b) were determined by quantifying the γ-glutamyl hydroxamate produced by the synthetase reaction (GSs) as described previously (Cullimore & Sims, 1981[▶]; Cullimore et al., 1982[▶]). The reactions started by the addition of 10 µg purified His-tagged GS isoenzyme to the assay mixture (100 mM Tris buffer pH 7.8, 100 mM glutamate, 8 mM ATP, 8 mM hydroxylamine, 16 mM MgSO4) were allowed to proceed at 30°C for 15 min and were stopped by adding one volume of stop solution (0.37 M FeCl3, 0.67 M HCl, 0.2 M TCA). GS specific activity was determined as the amount of γ-glutamyl hydroxamate produced per minute per milligram of purified protein (µmol min^−1 mg^−1). GS inhibition was evaluated by adding increasing concentrations of either phosphinothricin (PPT; Fluka; 0, 0.005, 0.01, 0.05, 0.1, 0.5, 1, 1.5, 2.5, 5, 10 and 20 mM) or methionine-S-sulfoximine (MSO; Sigma; 0, 0.5, 1, 1.5, 2.5, 5, 10, 20, 40 and 60 mM) to the reaction mixture. GS inhibition assays were performed at two different glutamate concentrations (20 and 100 mM). IC50 was calculated by nonlinear regression using the LogIC50 equation of GraphPad Prism5 (GraphPad Software).

The target of data set [2] is T2, M. truncatula GSII-1b (Medicago truncatula, UniProt O04999).
T2 sequence (O04999 1-356): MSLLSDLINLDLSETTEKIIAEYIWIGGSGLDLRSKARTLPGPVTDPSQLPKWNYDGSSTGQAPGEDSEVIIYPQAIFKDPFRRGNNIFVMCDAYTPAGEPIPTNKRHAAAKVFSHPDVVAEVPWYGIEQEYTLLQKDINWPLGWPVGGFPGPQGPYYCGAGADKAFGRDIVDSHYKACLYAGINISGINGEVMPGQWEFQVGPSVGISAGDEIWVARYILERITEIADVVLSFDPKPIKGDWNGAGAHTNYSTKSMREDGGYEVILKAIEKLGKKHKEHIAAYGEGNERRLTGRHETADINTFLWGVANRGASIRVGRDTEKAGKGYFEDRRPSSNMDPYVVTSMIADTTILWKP
As to the kind of experiment: GS synthetase reaction inhibition, GSII-1b. The format is biochemical. The protocol: as §1

For data set [3], the target named is T3, M. truncatula GSII-2a (Medicago truncatula, UniProt Q84UC1).
T3 sequence (Q84UC1 50-428): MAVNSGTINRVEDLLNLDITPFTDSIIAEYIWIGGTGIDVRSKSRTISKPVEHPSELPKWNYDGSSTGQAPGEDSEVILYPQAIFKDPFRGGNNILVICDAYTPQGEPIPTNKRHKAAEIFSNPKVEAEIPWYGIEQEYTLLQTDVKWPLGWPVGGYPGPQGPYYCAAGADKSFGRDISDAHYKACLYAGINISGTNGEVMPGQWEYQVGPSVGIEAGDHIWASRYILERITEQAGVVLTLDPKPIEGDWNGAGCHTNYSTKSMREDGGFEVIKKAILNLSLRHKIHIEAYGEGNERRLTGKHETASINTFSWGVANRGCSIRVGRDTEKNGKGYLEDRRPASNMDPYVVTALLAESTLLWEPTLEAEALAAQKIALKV
As to the kind of experiment: GS synthetase reaction inhibition, GSII-2a. The class given is biochemical. The protocol: as §1

Data set [4] deals with T4, M. truncatula GSII-2b (Medicago truncatula, UniProt E1ANG4).
T4 sequence (E1ANG4 50-428): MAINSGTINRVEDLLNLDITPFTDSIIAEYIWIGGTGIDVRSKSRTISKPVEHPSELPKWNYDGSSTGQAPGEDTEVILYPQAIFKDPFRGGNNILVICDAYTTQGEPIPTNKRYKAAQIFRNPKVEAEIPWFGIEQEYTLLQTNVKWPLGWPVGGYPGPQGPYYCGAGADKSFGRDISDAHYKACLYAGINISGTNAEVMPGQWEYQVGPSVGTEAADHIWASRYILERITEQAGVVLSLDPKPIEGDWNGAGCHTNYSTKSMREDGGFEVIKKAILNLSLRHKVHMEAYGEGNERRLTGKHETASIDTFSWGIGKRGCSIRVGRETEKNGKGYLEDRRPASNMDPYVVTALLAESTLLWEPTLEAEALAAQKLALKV
As to the kind of experiment: GS synthetase reaction inhibition, GSII-2b. The class given is biochemical. The protocol:
as §1

Data set [5] concerns plant GSII. Details: method as in Evstigneeva et al., 2003. As to conditions: plant GSII overall; ref Evstigneeva et al., 2003; cited from earlier work.
In data set [6] the target is Medicago truncatula plastid-located glutamine synthetase GSII-2a (mature polypeptide) (Medicago truncatula). As to the kind of experiment: native MS; nondenaturing conditions, ammonium acetate buffer pH 7.5, nano-electrospray, capillary voltage 1700 V, cone potential 50 V.
For data set [7] the target is unchanged. As to the kind of experiment: native MS; high activation conditions: collision energy increased from 100 to 200 V; ammonium acetate buffer pH 7.5; decamer to pentamers in the gas phase.
Data set [8] has the same target. Described as above. The source holds these as a separate data set.
For data set [9] the target is unchanged. As to the kind of experiment: cryo-EM structure; purified GSII-2a 0.3 mg/ml vitrified; single-particle reconstruction with D5 symmetry applied, 3117 side-view particles with parallel rings, 20 Å.
Data set [10] deals with the molecule itself. As to the kind of experiment: crystal structure; apo form, space group P2_(1), decamer in the asymmetric unit, 2.35 Å.
[11] abbreviates: MSO titration using 20 mM glutamate, His-tagged enzyme, read-out: IC50 (concentration of inhibitor reducing the GS activity by 50%).
Setting [12] is: standard GS assay conditions (100 mM glutamate).

In the case of `CS(=N)(=O)CC[C@H](N)C(=O)O` (some centres unmarked) [MSO, methionine-S-sulfoximine], the IC50 in data set [1] (setting [11]) is 9500 µM; in data set [2] (setting [11]) it was 2200 µM; in [3] (setting [11]) it was 3600 µM. Further, the “GS inhibition under the standard GS assay conditions” value in data set [1] (setting [12]), in data set [2] (setting [12]), in data set [3] (setting [12]) and in data set [4] (setting [12]) was “poorly inhibited” each time.
For the molecule `CP(=O)(O)CC[C@H](N)C(=O)O` [PPT, phosphinothricin], the IC50 came to 760 µM in data set [1], 670 µM in data set [2], 260 µM in data set [3] and 720 µM in [4]. Besides, the “times more effectively inhibited by PPT than by MSO” value in data set [5] is listed as 5–10 times.
As to “Medicago truncatula plastid-located glutamine synthetase GSII-2a (mature polypeptide) (enzyme)”, the stoichiometry N was 10 in data set [6], 5 in data set [7], 10 in data set [8] and 10 in [9].

B1: Medicago truncatula cytosolic glutamine synthetase GSII-1a (enzyme, UniProt O04998 1-356, looked up)
chain: MSLLSDLINLNLSESSEKIIAEYIWVGGSGMDLRSKARTLPGPVSDPSKLPKWNYDGSSTNQAPGQDSEVILYPQAIFKDPFRQGNNILVICDVYTPAGEPLPTNKRYNAAKIFSHPDVAAEVPWYGIEQEYTLLQKDTNWPLGWPIGGYPGPQGPYYCGIGADKAYGRDIVDAHYKACLYAGINISGINGEVMPGQWEFQVGPSVGISAGDEIWAARYILERITEIAGVVVSFDPKPIPGDWNGAGAHTNYSTKSMRENGGYEIIKKAIEKLGLRHKEHIAAYGEGNERRLTGKHETADINTFSWGVANRGASVRVGRDTEKDGKGYFEDRRPSSNMDPYVVTSMIAETTLLWKP
notes: Glutamine synthetase GSII-1a, cytosolic, Medicago truncatula, UniProt O04998; Apo form; also called MtGSII-1a; MtGSII1a; source: recombinant, N-terminally His-tagged; cloning and crystallisation described previously (Seabra et al., 2009); not shown: His tag, N-terminal, kept; copies: 10
In the case of B1, the “stoichiometry N” value in data set [10] was found to be 10.

Broadly, the stoichiometry N is a count of units in the complex or per binding partner.
